Publication PMC4464647, “ANO1 (TMEM16A) in pancreatic ductal adenocarcinoma (PDAC)” (Pflugers Archiv, 2014)

Tests used:
Type in all cases: cell-based, human
HPDE cells = assay: Fura-2 measurement of free intracellular calcium, ATP stimulation; details: ATP 10 μM, no inhibitor
Procedure: (§1) HPDE and BxPC-3 cells were incubated with 2 μM Fura-2 AM (Sigma-Aldrich, Denmark) for 30 min at 37 °C. Cells were subsequently washed with Krebs solution containing (in mM) 150 NaCl, 6 KCl, 1.5 CaCl2, 1 MgCl2, 10 glucose, and 10 HEPES; pH was adjusted to 7.4 using NaOH. Coverslips were mounted on a recording chamber. In the beginning of the experiment, cells were perfused with Krebs solution at 4 ml/min until baseline was stable. […] Changes in [Ca^2+]i were measured by a TIRF iMIC microscope (TILL Photonics, Germany). Fura-2 AM loaded cells were illuminated at 340 nm for 80 ms and 380 nm for 80 ms at 1 s intervals using a TILL Polychrome monochromator. Five hundred-nanometer emission images were captured by an image-intensifying, charge-coupled device (CCD) camera (TILL Photonics, Germany) and digitized by an image processing system (TILL Photonics, Germany). The monochromator and CCD camera were controlled by LA Live Acquisition software, which was also used for image analysis. The [Ca^2+]i was presented as the Fura-2 ratio of the fluorescence signals obtained at 340/380 nm.
(§2) Fig. 8 Cl^− channel inhibitors alter ATP-induced Ca^2+ signals. Intracellular Ca^2+ measurements in FURA-2 loaded HPDE and BxPC-3 cells. a Representative single-cell traces of individual experiments. Different substances were applied as indicated. […] (n) = number of individual experiments; each containing between 5–45 single cells.***p ≤ 0.001 when compared to no inhibitor condition; ^## p ≤ 0.01 when compared with HPDE no inhibitor
(§3) Activation of CaCC requires an increase in [Ca^2+]i, which can be achieved by stimulation of receptors such as purinergic receptors. Therefore, we studied the effect of Cl^− channel inhibitors on changes in [Ca^2+]i induced by purinergic signaling. We chose HPDE cells with very low expression levels of ANO1 and the highly ANO1 overexpressing cell line BxPC-3 for investigation. Fura-2 loaded HPDE and BxPC-3 cells were stimulated with ATP (10 μM) (Fig. 8) or exposed to the inhibitor prior to stimulation. ATP stimulation caused a 0.46 ± 0.03 peak increase in the Fura-2 ratio in HPDE and 0.55 ± 0.02 in BxPC-3 cells. […] However, no effect of the inhibitor on basal Ca^2+ level was observed.

BxPC-3 cells = assay: as above; details: BxPC-3, ATP 10 μM, no inhibitor
Procedure: as §1, §2, §3

[1] = test system: HPDE, Capan-1, AsPC-1, and BxPC-3 cells; assay: BrdU incorporation cell proliferation assay, all tested cell lines; details: all tested cells, gemcitabine 20 μM, data not shown
Procedure: To assess cell proliferation and apoptosis, cells were plated in duplicates on a 96-well plate and incubated in 100 μl of the cell line appropriate media described above. Cells were transfected with siRNA soon after complete attachment (approx. 3 h after seeding). Cells were treated with vehicle, 20 μM gemcitabine, 20 μM T16Ainh-A01, or 10 μM free NS3728 (see below) after culture in a humidified 37 °C and 5 % CO2 incubator overnight. BrdU incorporation was measured using Cell Proliferation ELISA, BrdU (chemiluminescent) (Roche Diagnostics A/S, Denmark) following the manufacturer’s instructions. Caspases 3, 6, and 7 activation was evaluated using Homogeneous Caspases Assay (fluorimetric) (Roche Diagnostics A/S, Denmark).
Fig. 7 VRAC, but not ANO1, regulates cellular proliferation. a Summary of BrdU incorporation in HPDE, Capan-1, AsPC-1, and BxPC-3 cells after various treatments as indicated. Cells were transfected shortly after complete attachment (approx. 3 h) and BrdU incorporation was assessed 36 h after transfection. To investigate effect of inhibitors, cells were incubated for 24 h with respective inhibitor. Values shown are relative to appropriate control. Data shown represents mean ± s.e.m. of n = 4–6 individual experiments. **p ≤ 0.01 and ***p ≤ 0.001 when compared with control

| SMILES | peak increase in the Fura-2 ratio (HPDE cells) | peak increase in the Fura-2 ratio (BxPC-3 cells) | proliferation (BrdU incorporation) [1] |
| --- | --- | --- | --- |
| Nc1ncnc2c1ncn2[C@@H]1O[C@H](COP(=O)(O)OP(=O)(O)OP(=O)(O)O)[C@@H](O)[C@H]1O [ATP] | 0.46 ± 0.03 | 0.55 ± 0.02 | – |
| Nc1ccn([C@@H]2O[C@H](CO)[C@@H](O)C2(F)F)c(=O)n1 [gemcitabine] | – | – | almost complete inhibition of proliferation |
